Source: patent US20230348362A1, “LIPID COMPOUNDS AND LIPID NANOPARTICLE COMPOSITIONS” (Suzhou Abogen Biosciences Co., Ltd., priority 2021, published 2023)
Read-outs that look alike come from different tables or passages of the source.

Legend:
[1] = Lipid nanoparticle size and polydispersity by dynamic light scattering; assay type: physicochemical; conditions: LNP of lipid/DSPC/cholesterol/PEG-lipid 50:10:38.5:1.5 encapsulating hEPO mRNA
How it was run: (§1)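 LNPs made from ionizable lipid/DSPC/cholesterol/PEG-lipid (50:10:38.5:1.5) and mRNA in citrate pH 4 by microfluidic mixing, lipid:mRNA about 10:1–30:1 w/w, then dialysed into DPBS and filtered. Size and PDI measured by DLS in backscatter mode; encapsulation efficiency measured by RiboGreen assay.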

[2] = Encapsulation efficiency of lipid nanoparticles, Quant-it Ribogreen RNA assay; assay type: physicochemical; conditions: LNP of lipid/DSPC/cholesterol/PEG-lipid 50:10:38.5:1.5 encapsulating hEPO mRNA
How it was run: as §1

[3] = Lipid clearance study: lipid remaining in liver tissue by LC-MS/MS; conditions: ICR female mice, 0.5 mg/kg i.v. bolus dose mRNA
Protocol: (§2) LNPs were injected into mice via the tail vein (ICR female, IV, 0.5 mg mRNA/kg), then mice were anesthetized under carbon dioxide at different time (e.g., 6 h, 24 h, and 48 h) after administration and sacrificed via cardiac puncture. Liver tissue were collected immediately, and then washed by ice-cold saline. Liver samples were weighed and homogenized in ice water bath by adding pre-chilled 20% methanol-water (v/v) at 2˜8° C. with the ratio of 1:5 (w/v). The homogenized tissue samples were stored in −90˜−60° C. freezer prior to analysis.
(§3) Sample Processing. All liver tissue homogenate samples were allowed to thaw at room temperature. An aliquot of 50 μL of sample was added with 50 μL MgCl2 (2M), then added with ACN which contains of Verapamil, 5 ng·mL^−1 and Glibenclamide, 50 ng·mL^−1 and Diclofenac, 200 ng·mL^1 and Tolbutamide, 200 ng·mL^1 for protein precipitation, then centrifuged at 13000 rpm for 8 min. Then 100 μL of supernatant was added with 100 μL water, then vortexed well. An aliquot of 5 μL of the mixture was injected into the LC-MS/MS system.

[4] = Apparent pKa of LNP formulations, TNS fluorescence assay; assay type: physicochemical; conditions: LNP cationic lipid/DSPC/cholesterol/DMG-PEG 50/10/38.5/1.5 mol %
How it was run: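 LNPs (cationic lipid/DSPC/cholesterol/DMG-PEG 50/10/38.5/1.5 mol %) diluted to 0.1 mg/mL total lipid in citrate/phosphate/borate/NaCl buffers spanning pH 3–9 with TNS. Fluorescence (ex 325, em 435 nm) read at room temperature; pKa taken as the pH at half-maximal intensity from sigmoidal fit.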

[5] = mouse, in vivo, iv, 0.5 mg/kg
Protocol: as §2, §3

Row | Compound | polydispersity [1] | size (nm) [1] | Encapsulation Efficiency [2] | % Dose Remaining in Liver Tissue ([3]; 6 h) | % Dose Remaining in Liver Tissue ([3]; 24 h) | % Dose Remaining in Liver Tissue ([3]; 48 h) | Apparent Pka [4] | % Dose Remaining in Liver Tissue ([5]; 6 h) | % Dose Remaining in Liver Tissue ([5]; 24 h) | % Dose Remaining in Liver Tissue ([5]; 48 h)
1 | CCCCCCCCC(CCCCCCCC)CNC(=O)CCCCCN1CCC(N(CCO)CCCCC(COC(=O)CCCCCCC)COC(=O)CCCCCCC)CC1 [Compound 218] | 0.043 | 82.04 nm | 93.64% | 7.38% | 1.03% | 0.17% | – | – | – | –
2 | CCCCCCCCC(CCCCCCCC)CC(=O)NCCCCCN(CCN(CCO)CCCCCOC(=O)CC(CCCCCCCC)CCCCCCCC)C1CCCCCC1 [Compound 74] | 0.05 | 67.96 nm | 92.74% | 48.44% | 50.42% | 50.83% | – | – | – | –
3 | CCCCCCCCCCCOC(=O)CCCCCN(CCN(CCO)CCCCCC(=O)OCC(CCCCCCCC)CCCCCCCC)C1CCCCC1 [Compound 21] | 0.042 | 81.93 nm | 92.3% | 94.55% | 67.66% | 24.38% | 6.361 | – | – | –
4 | CCCCC/C=C\C/C=C\CCCCCCCCC(CCCCCCCC/C=C\C/C=C\CCCCC)OC(=O)CCCN(C)C [MC3, dilinoleylmethyl-4-dimethylaminobutyrate] | – | – | – | – | – | – | – | 69.39% | 61.63% | 52.47%
5 | CCCCCCCCCCCOC(=O)CCCCCN(CCN(CCO)CCCCCOC(=O)N(CCCCCCCC)CCCCCCCC)C1CCCCC1 [Compound 99] | 0.135 | 87.73 nm | 83.64% | 22.45% | 16.39% | 14.08% | – | – | – | –
6 | CCCCCCCCC(CCCCCCCC)COC(=O)CCCCCN(CCCCN(CCO)CCCCC(COC(=O)CCCCCCC)COC(=O)CCCCCCC)C1CCC1 [Compound 220] | 0.15 | 94.56 nm | 94.84% | 7.87% | 1.98% | 0.52% | – | – | – | –
7 | CCCCCCCCCCCC(=O)OCCCCCN(CCN(CCO)CCCCCOC(=O)CC(CCCCCCCC)CCCCCCCC)C1CCCCCCC1 [Compound 95] | 0.103 | 55.48 nm | 92.04% | – | – | – | 6.271 | – | – | –
8 | CCCCCCCC(=O)OCC(CCCCN(CCO)CCN(CCCCC(COC(=O)CCCCCCC)COC(=O)CCCCCCC)C1CCC1)COC(=O)CCCCCCC [Compound 71] | 0.091 | 65.56 nm | 89.25% | 1.34% | 0.00% | 0.00% | 6.489 | – | – | –
9 | CCCCCCCCC(CCCCCCCC)CC(=O)NCCCCCN(CCN(CCO)CCCCCCOC(=O)C(CCCCCC)CCCCCCCC)C1CCC1 (stereo not shown) [Compound 70] | 0.005 | 126 nm | 91.32% | – | – | – | 6.732 | – | – | –
10 | CCCCCCCC(=O)OCC(CCCCN(CCC)CCCCN(CCO)CCCCC(COC(=O)CCCCCCC)COC(=O)CCCCCCC)COC(=O)CCCCCCC [Compound 184] | 0.172 | 129.75 nm | 90.65% | – | – | – | 7.098 | – | – | –
11 | CCCCCCCCC(CCCCCC)CNC(=O)CCCCCN(CCO)CCN(CCCCC(COC(=O)CCCCCCC)COC(=O)CCCCCCC)C1CC1 (stereo not shown) [Compound 155] | 0.071 | 70.67 nm | 89.57% | – | – | – | 6.28 | – | – | –
12 | CCCCCCCCC(CCCCCCCC)COC(=O)CCCCCN1CCC(N(CCO)CCCCCC(=O)OCC(CCCCCCCC)CCCCCCCC)CC1 [Compound 170] | 0.09 | 74.62 nm | 96.0% | – | – | – | 6.269 | – | – | –
13 | CCCCCCCCCOC(=O)CCCCCN(CCN(CCO)CCCCCC(=O)OCC(CCCCCCCC)CCCCCCCC)C1CCCCC1 [Compound 102] | 0.082 | 77.17 nm | 90.14% | – | – | – | 6.407 | – | – | –
14 | CCCCCCCCC(CCCCCC)CNC(=O)CCCCCN(CCCCCO)CCN(CCCCC(COC(=O)CCCCCCC)COC(=O)CCCCCCC)C1CCCCC1 (stereo not shown) [Compound 209] | 0.039 | 95.78 nm | 87.79% | – | – | – | 6.608 | – | – | –
15 | CCCCCCCCC(CCCCCCCC)COC(=O)CCCCCN(CCO)CCN(CCCCCC(=O)OCC(CCCCCCCC)CCCCCCCC)C1CC(OC)C1 (stereo not shown) [Compound 67] | 0.023 | 75.57 nm | 95.1% | – | – | – | 5.980 | – | – | –
